Data: patent US9505742B2, “3,4-dihydro-2H-isoquinoline-1-one and 2,3-dihydro-isoindol-1-one compounds” (Hoffmann-La Roche Inc., priority 2013, dated 2016)

Legend:
human CYP11B2 = molecular target: T1, human CYP11B2 (Homo sapiens, UniProt P19099); assay: G-402 cellular enzyme assay, human CYP11B2 (aldosterone release, HTRF); format: cell-based; settings: G-402 cells expressing human CYP11B2; 1 μM Deoxycorticosterone
T1 construct: The expression plasmids contains the ORF for either human/cyno CYP11B1 or CYP11B2; expressed in transfected cells
T1 sequence (P19099 25-503): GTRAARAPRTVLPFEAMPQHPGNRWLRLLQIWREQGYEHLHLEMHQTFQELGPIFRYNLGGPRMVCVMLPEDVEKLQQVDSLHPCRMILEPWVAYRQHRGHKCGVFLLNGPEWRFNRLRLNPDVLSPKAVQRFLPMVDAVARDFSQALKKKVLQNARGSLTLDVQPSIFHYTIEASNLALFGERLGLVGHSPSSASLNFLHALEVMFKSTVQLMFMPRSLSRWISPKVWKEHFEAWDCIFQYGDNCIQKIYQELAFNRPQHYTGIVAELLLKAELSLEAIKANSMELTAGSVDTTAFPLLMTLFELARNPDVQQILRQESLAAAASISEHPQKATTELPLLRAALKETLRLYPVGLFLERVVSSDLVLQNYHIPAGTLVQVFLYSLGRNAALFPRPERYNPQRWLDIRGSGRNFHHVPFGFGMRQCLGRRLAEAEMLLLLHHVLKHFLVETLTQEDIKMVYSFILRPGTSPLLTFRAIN
Description: (§1) Herein we identified the use of the G-402 cell line as a host cell to ectopically express (transiently or stably) enzymes of the CYP11 family. Specifically we developed stable G-402 cells expressing ectopically human CYP11B1, human CYP11B2, human CYP11A1, cynmolgus CYP11B1 or cynomolgus CYP11B2 enzyme activity. Importantly the identified cell line G-402 expresses co-factors (adrenodoxin and adrenodoxin reductase) important for the activity of the CYP11 family and no relevant enzyme activity of the CYP11 family (in comparison to H295R cells) was detected in these cells. Therefore the G-402 cell line is uniquely suited as a host cell for the ectopic expression of enzymes from the CYP11 family. G-402 cells can be obtained from ATCC (CRL-1440) and were originally derived from a renal leiomyoblastoma.
(§2) The expression plasmids contains the ORF for either human/cyno CYP11B1 or CYP11B2 under the control of a suitable promoter (CMV-promoter) and a suitable resistance marker (neomycin). Using standard techniques the expression plasmid is transfected into G-402 cells and these cells are then selected for expressing the given resistance markers. Individual cell-clones are then selected and assessed for displaying the desired enzymatic activity using 11-Deoxycorticosterone (Cyp11B2) or 11-Deoxycortisol (Cyp11B) as a substrate.
(§3) G-402 cells expressing CYP11 constructs were established as described above and maintained in McCoy's 5a Medium Modified, ATCC Catalog No. 30-2007 containing 10% FCS and 400 μg/ml G418 (Geneticin) at 37° C. under an atmosphere of 5% CO2/95% air. Cellular enzyme assays were performed in DMEM/F12 medium containing 2.5% charcoal treated FCS and appropriate concentration of substrate (0.3-10 uM 11-Deoxycorticosterone, 11-Deoxycortisol or Corticosterone). For assaying enzymatic activity, cells were plated onto 96 well plates and incubated for 16 h. An aliquot of the supernatant is then transferred and analyzed for the concentration of the expected product (Aldosterone for CYP11B2; Cortisol for CYP11B1). The concentrations of these steroids can be determined using HTRF assays from CisBio analyzing either Aldosterone or Cortisol.
(§4) Inhibition of the release of produced steroids can be used as a measure of the respective enzyme inhibition by test compounds added during the cellular enzyme assay. The dose dependent inhibition of enzymatic activity by a compound is calculated by means of plotting added inhibitor concentrations (x-axes) vs. measured steroid/product level (y-axes). The inhibition is then calculated by fitting the following 4-parameter sigmoidal function (Morgan-Mercer-Flodin (MMF) model) to the raw data points using the least squares method:
(§5) [formula] wherein, A is the maximum y value, B is the EC50 factor determined using XLFit, C is the minimum y value and D is the slope value.
(§6) EC50 values for compounds claimed herein were tested with the G402-based assay system described. Cyp11B2 enzyme activity was tested in presence of 1 μM Deoxycorticosterone and variable amounts of inhibitors; Cyp11B1 enzyme activity was tested in presence of 1 μM Deoxycortisol and variable amounts of inhibitors.

human CYP11B1 = molecular target: T2, human CYP11B1 (Homo sapiens, UniProt P15538); assay: G-402 cellular enzyme assay, human CYP11B1 (cortisol release, HTRF); format: cell-based; settings: G-402 cells expressing human CYP11B1; 1 μM Deoxycortisol
T2 construct: The expression plasmids contains the ORF for either human/cyno CYP11B1 or CYP11B2; expressed in transfected cells
T2 sequence (P15538 25-503): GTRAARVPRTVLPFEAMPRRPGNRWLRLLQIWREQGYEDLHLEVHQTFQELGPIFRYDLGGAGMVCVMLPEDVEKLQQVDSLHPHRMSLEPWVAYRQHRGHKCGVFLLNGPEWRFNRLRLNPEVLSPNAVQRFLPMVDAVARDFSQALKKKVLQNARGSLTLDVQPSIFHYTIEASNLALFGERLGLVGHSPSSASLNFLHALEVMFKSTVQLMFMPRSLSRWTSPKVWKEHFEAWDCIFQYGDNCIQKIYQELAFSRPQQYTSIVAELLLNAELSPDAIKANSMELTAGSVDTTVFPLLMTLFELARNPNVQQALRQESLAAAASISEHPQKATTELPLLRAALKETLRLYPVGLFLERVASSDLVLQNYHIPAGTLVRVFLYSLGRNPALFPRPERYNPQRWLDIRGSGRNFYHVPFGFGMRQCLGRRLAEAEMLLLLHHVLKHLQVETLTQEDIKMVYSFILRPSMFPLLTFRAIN
Description: as §1, §2, §3, §4, §5, §6

[1] = rat CKD model, cited from earlier work; for plasma aldosterone: FAD286 4 weeks, spironolactone 4 and 8 weeks of treatment
[2] = rats with experimental heart failure; cited from earlier work
CYP11B2 = CYP11B2 (Homo sapiens, UniProt P19099); settings: patients with primary aldosteronism, cited from earlier work

Row | EC50 (human CYP11B2) | EC50 (human CYP11B1) | SMILES | also measured
1 | 34 nM | 8070 nM | COc1ccc2c(n1)C(C)(C)N(c1cncc(C3(F)CCN(S(=O)(=O)C(C)C)CC3)c1)C2=O [Example 42, 6-[5-(4-Fluoro-1-isopropylsulfonyl-4-piperidyl)-3-pyridyl]-2-methoxy-7,7-dimethyl-pyrrolo[3,4-b]pyridin-5-one] | –
2 | 21 nM | 1900 nM | CCCS(=O)(=O)N1CCC(F)(c2cncc(N3C(=O)c4ccc(OC)nc4C3(C)C)c2)CC1 [Example 43, 6-[5-(4-Fluoro-1-propylsulfonyl-4-piperidyl)-3-pyridyl]-2-methoxy-7,7-dimethyl-pyrrolo[3,4-b]pyridin-5-one] | –
3 | 4 nM | 8 nM | COc1ccc2c(n1)C(C)(C)N(c1cncc(C3(F)CCN(C(=O)c4nccn4C)CC3)c1)C2=O [Example 44, 6-[5-[4-Fluoro-1-(1-methylimidazole-2-carbonyl)-4-piperidyl]-3-pyridyl]-2-methoxy-7,7-dimethyl-pyrrolo[3,4-b]pyridin-5-one] | –
4 | 30 nM | 1250 nM | COc1ccc2c(n1)C(C)(C)N(c1cncc(C3(F)CCN(S(=O)(=O)C4CC4)CC3)c1)C2=O [Example 45, 6-[5-(1-Cyclopropylsulfonyl-4-fluoro-4-piperidyl)-3-pyridyl]-2-methoxy-7,7-dimethyl-pyrrolo[3,4-b]pyridin-5-one] | –
5 | 23 nM | 1920 nM | CCS(=O)(=O)N1CCC(c2cncc(N3C(=O)c4ccc(OC)nc4C3(C)C)c2)CC1 [Example 46, 6-[5-(1-Ethylsulfonyl-4-piperidyl)-3-pyridyl]-2-methoxy-7,7-dimethyl-pyrrolo[3,4-b]pyridin-5-one] | –
6 | 41 nM | 573 nM | COc1ccc2c(n1)C(C)(C)N(c1cncc(C3CCN(C(=O)c4cnn(C)c4)CC3)c1)C2=O [Example 47, 2-Methoxy-7,7-dimethyl-6-[5-[1-(1-methylpyrazole-4-carbonyl)-4-piperidyl]-3-pyridyl]pyrrolo[3,4-b]pyridin-5-one] | –
7 | 151 nM | 1320 nM | COc1ccc2c(n1)C(C)(C)N(c1cncc(C3CCN(C(=O)c4cnccc4C)CC3)c1)C2=O [Example 49, 2-Methoxy-7,7-dimethyl-6-[5-[1-(4-methylpyridine-3-carbonyl)-4-piperidyl]-3-pyridyl]pyrrolo[3,4-b]pyridin-5-one] | –
8 | – | – | N#Cc1ccc(C2CCCc3cncn32)cc1 (centres unmarked) [FAD286] | plasma aldosterone [1]: reduced; angiotensin II and salt-stimulated PAI-1 mRNA expression in the aorta and the heart [1]: not; renal effects of angiotensin II and high salt (albuminuria, azotemia, renovascular hypertrophy, glomerular injury, PAI-1 and osteopontin mRNA, tubulointerstitial fibrosis) [1]: prevented these renal effects; blood pressure and cardiovascular function and structure [2]: improved; kidney function and morphology [2]: improve
9 | – | – | N#Cc1ccc([C@H]2CCc3cncn32)c(F)c1 [LCI699] | circulating aldosterone levels (CYP11B2; oral): significantly lower; blood pressure (CYP11B2): mildly decreased; hypokalemia (CYP11B2): corrected; selectivity / effects on the glucocorticoid axis (CYP11B2): poor selectivity
10 | – | – | CC(=O)S[C@@H]1CC2=CC(=O)CC[C@]2(C)[C@H]2CC[C@@]3(C)[C@@H](CC[C@@]34CCC(=O)O4)[C@H]12 [spironolactone] | plasma aldosterone [1]: increased; angiotensin II and salt-stimulated PAI-1 mRNA expression in the aorta and the heart [1]: enhanced; renal effects of angiotensin II and high salt (albuminuria, azotemia, renovascular hypertrophy, glomerular injury, PAI-1 and osteopontin mRNA, tubulointerstitial fibrosis) [1]: prevented these renal effects
